Measured values: patent US5993815A, “Methods and compositions for inhibiting the activation of thrombin-activatable fibrinolysis inhibitor (TAFI)” (University of Vermont, priority 1997, dated 1999)

Columns and labels:
Format in all cases: biochemical
[1] = target: T1, thrombin in complex with thrombomodulin (activation of purified human TAFI) (Homo sapiens, UniProt P00734); assay: two-stage TAFI activation assay, chromogenic substrate hippuryl arginine; conditions: FPA-CK 50 nmol/L present during incubation of TAFI with thrombin and thrombomodulin, 10 minutes at 22° C.
T1 construct: Prothrombin was purified as described previously and used to prepare thrombin; made in house
Description: In a 25-μL reaction volume, TAFI zymogen (0.8 μmol/L final concentration) is incubated with thrombomodulin (40 nmol/L final concentration), Ca^2+ (5.0 mmol/L final concentration), and thrombin (8.0 nmol/L final concentration) in the presence and absence of the putative peptide for 10 minutes at 22° C. Thrombin is then inhibited by the addition of the Phe-Pro-Arg chloromethyl ketone (FPA-CK 50 nmol/L final concentration). […] A negative control may be used by adding FPA-CK at the initiation of the reaction. In the negative control TAFI is not activated because the thrombin is inhibited from functioning. […] The time course of hippuric acid formation is measured by first correcting the volume in each of the reactions by the addition of a volume of buffer equal to that of the added putative peptide. […] The time course of hippuric acid formation at 22° C. is followed by monitoring absorbance at 254 nm and 0.5 minute intervals using a spectrophotometer such as Beckman DU-65 spectrophotometer (Fullteron, Calif.).
Hydrolysis of the chromogenic substrate, hipurryl arginine, was used to determine whether MoAbTAFI#16 inhibits active TAFI. […] The time course of hippuric acid formation at 22° C. was followed by monitoring absorbance at 254 nm and 0.5 minute intervals using a Beckman DU-65 spectrophotometer (Fullteron, Calif.). […]

[2] = target: T2, active TAFI (thrombin-activatable fibrinolysis inhibitor, plasma carboxypeptidase B) in clots formed from normal human plasma (Homo sapiens, UniProt Q96IY4); assay: turbidometric tPA-induced lysis assay of clots formed from normal human plasma (NHP); conditions: tPA 294 pmol/L, 37° C., TAFI-dependent profibrinolytic effect, read-out: EC50 (shortening of lysis time)
T2 construct: tissue Haematologic Technologies Inc. (Burlington, Vt.); host or cells: pooled (3 to 4 donors) fresh frozen human plasma
T2 sequence (Q96IY4 115-423): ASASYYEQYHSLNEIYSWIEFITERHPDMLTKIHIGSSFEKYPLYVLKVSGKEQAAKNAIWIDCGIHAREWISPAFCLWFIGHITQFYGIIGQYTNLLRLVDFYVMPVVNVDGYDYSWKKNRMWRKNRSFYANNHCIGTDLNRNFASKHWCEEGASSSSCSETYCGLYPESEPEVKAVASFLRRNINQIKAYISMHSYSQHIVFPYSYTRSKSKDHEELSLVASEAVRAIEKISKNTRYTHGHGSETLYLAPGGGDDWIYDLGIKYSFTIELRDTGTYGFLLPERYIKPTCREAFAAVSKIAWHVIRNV
Description: (§1) Preparation of plasma for lysis assays. Pooled (3 to 4 donors) fresh frozen human plasma was purchased from Haematologic Technologies Inc. (Burlington, Vt.) and dialyzed against 4 L of 20 mmol/L HEPES, 150 mmol/L NaCl, pH 7.4 (HBS) at 4° C. with 4 changes overnight. The dialysate, termed normal human plasma (NHP), was stored at -70° C. in 2.0-mL aliquots. TAFI-deficient plasma (TdP) was produced by passing an aliquot, maximally 50 mL, of NHP over a 2.0-mL anti-TAFI affinity column (MoAbTAFI#16-Sepharose 4B) equilibrated in HBS. Depletion of TAFI was verified by Western blot analysis of a sample from each individual fraction. Only the flow-through fractions depleted of TAFI with an A280 equal to the NHP loaded onto the column were pooled and subsequently stored in 2.0 mL aliquots at -70° C. Pooled plasma samples were also subjected to Western blotting and TAFI concentrations were quantified by ELISA.
(§2) Lysis assay. […] After adding the plasma to the microtiter wells, the plate was transferred to a THERMOMAX microtiter plate reader (Molecular Devices). Temperature was maintained at 37° C. and the turbidity was monitored at 405 nm and 2.5-minute intervals. […]
(§3) 3. […] The TAFI-dependent profibrinolytic effect of each compound was evaluated by determination of lysis time of clots formed from both NHP and TdP in the presence of various concentrations of each inhibitor. […]

[3] = tested on: clots formed from TAFI-deficient human plasma (TdP); assay: turbidometric tPA-induced lysis assay of clots formed from TAFI-deficient plasma (TdP); conditions: every concentration studied; lysis time approximately 50 minutes
Description: as §1, §2, §3

EC50 [2] [µM] | SMILES | active TAFI activity generated [1] | effect on lysis time of clots formed from TdP [3]
 | N=C(N)NCCC[C@H](NC(=O)[C@@H]1CCCN1C(=O)[C@@H](N)Cc1ccccc1)C(=O)CCl [FPA-CK, Phe-Pro-Arg chloromethyl ketone] | No active TAFI activity was generated | 
90 | N=C(N)NCCSC(CC(=O)O)C(=O)O (stereo not drawn) [GEMSA, 2-Guanidinoethylmercaptosuccinic acid] |  | did not affect lysis time
